Article PMC9871744 (Cellular and Molecular Gastroenterology and Hepatology, 2022)
Values joined by “and” are separate entries in the source; they are usually repeats but may differ in a detail not shown here. Equal entries are not always repeated.

Experiments:
HepG2 cells [1] = assay: Micronucleus analysis
Cytotoxicity evaluation = details: human, Cytotoxicity (%)
HepG2 cells [2] = assay: Cytotoxicity evaluation
C57Bl/6 male mice [3] = assay: Lingual application: pancreato-bile secretion and release of gut peptides; format: in vivo; details: tongue application 100 μmol/L; at 30 and 60 minutes
human fungiform TBC = assay: Ca2+ signaling in human fungiform TBC; format: cell-based
mouse fungiform TBC = assay: Ca2+ signaling in mouse fungiform TBC; format: cell-based; details: LA at 20 μmol/L
[4] = tested on: chorda tympani (CT) nerve; assay: Chorda tympani; format: in vivo; details: lingual application in mice; 1, 2, and 4 mmol/L; normalized to NH4Cl 100 mmol/L
C57Bl/6 male mice [5] = assay: Two-bottle preference and licking tests; format: in vivo; details: 75 μmol/L in 0.3% xanthan gum, 12 hours
C57BL/6J male mice = assay: Diet-induced obesity; format: in vivo
[6] = biological target: T1, human estrogen receptor alpha (hERα) (Homo sapiens, UniProt P03372); assay: Estrogen receptor transcriptional activation and inhibition assays; format: cell-based
T1 sequence (P03372 1-595): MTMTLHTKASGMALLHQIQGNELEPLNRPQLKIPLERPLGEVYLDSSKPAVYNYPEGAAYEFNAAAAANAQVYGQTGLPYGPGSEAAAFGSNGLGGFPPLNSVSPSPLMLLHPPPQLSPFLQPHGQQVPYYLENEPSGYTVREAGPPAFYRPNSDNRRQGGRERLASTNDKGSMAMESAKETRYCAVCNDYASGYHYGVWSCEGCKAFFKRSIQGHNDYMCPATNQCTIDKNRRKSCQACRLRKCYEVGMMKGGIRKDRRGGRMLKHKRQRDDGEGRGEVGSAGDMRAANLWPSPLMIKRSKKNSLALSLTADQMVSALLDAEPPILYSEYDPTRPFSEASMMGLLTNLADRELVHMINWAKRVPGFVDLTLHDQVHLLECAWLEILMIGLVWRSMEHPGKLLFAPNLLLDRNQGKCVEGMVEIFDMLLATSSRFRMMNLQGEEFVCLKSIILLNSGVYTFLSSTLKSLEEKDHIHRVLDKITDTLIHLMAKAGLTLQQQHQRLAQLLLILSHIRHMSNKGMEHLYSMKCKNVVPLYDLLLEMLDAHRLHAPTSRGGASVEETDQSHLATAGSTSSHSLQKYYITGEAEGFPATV

[7] = tested on: human androgen receptor (hAR); assay: Androgen receptor transcriptional activation and inhibition assays; format: cell-based
female Wistar rats = assay: Toxicity / median lethal dose test, OECD guidelines 425; format: in vivo
[8] = Pharmacokinetics and detection in blood by LC-MS; format: in vivo, mice; details: mice
[9] = tested on: S typhimurium tester strains TA98, TA100, TA1535, and TA1537 and E coli tester strain WP2uvrA(pKM101); details: all doses with and without S9
[10] = extended treatment in the absence of S9 mix, 0.0025 μg/mL (Table 13)
[11] = extended treatment in the absence of S9 mix, 0.025 μg/mL (Table 14)
[12] = extended treatment in the absence of S9 mix, 0.0025 μg/mL (Table 5)
[13] = extended treatment in the absence of S9 mix, 0.025 μg/mL (Table 8)
[14] = short treatment in the presence of S9 mix, 5 μg/mL (Table 11)
[15] = short treatment in the presence of S9 mix, 10 μg/mL (Table 12)
[16] = short treatment in the presence of S9 mix, 5 μg/mL (Table 4)
[17] = short treatment in the presence of S9 mix, 10 μg/mL (Table 7)
[18] = rats, single oral 2000 mg/kg, means ± SEM (n = 5)
[19] = short treatment in the absence of S9 mix, 2.5 mmol/L
[20] = short treatment in the absence of S9 mix, 5 mmol/L
[21] = short treatment in the absence of S9 mix, 10 mmol/L
[22] = short treatment in the presence of S9 mix, 2.5 mmol/L
[23] = short treatment in the presence of S9 mix, 5 mmol/L
[24] = short treatment in the presence of S9 mix, 10 mmol/L
[25] = extended treatment in the absence of S9 mix
[26] = short treatment in the absence of S9 mix
[27] = short treatment in the presence of S9 mix
[28] = extended treatment in the absence of S9 mix, 2.5 mmol/L
[29] = extended treatment in the absence of S9 mix, 5 mmol/L
[30] = extended treatment in the absence of S9 mix, 10 mmol/L

CC[C@]1(O)C[C@@H]2CN(CCc3c([nH]c4ccccc34)[C@@](C(=O)OC)(c3cc4c(cc3OC)N(C)[C@H]3[C@@](O)(C(=O)OC)[C@H](OC(C)=O)[C@]5(CC)C=CCN6CC[C@]43[C@@H]65)C2)C1 [Vinblastine, reference compound]
MNBN cells frequency (%) (HepG2 cells [1]; [10]): 11.5% and 12.3%
Mean frequency (%) of MNBN cells (HepG2 cells [1]; [10]): 11.9%
MNBN cells frequency (%) (HepG2 cells [1]; [11]): 4.6% and 4.1%
Mean frequency (%) of MNBN cells (HepG2 cells [1]; [11]): 4.35%
cytotoxicity at 0.0025 μg/mL (Cytotoxicity evaluation; [12]): 27.1%
cytotoxicity at 0.025 μg/mL (Cytotoxicity evaluation; [13]): 9.29%
CBPI (HepG2 cells [2]; [12]): 1.67
Mean CBPI (HepG2 cells [2]; [12]): 1.67
CBPI (HepG2 cells [2]; [13]): 1.97 and 1.92
Mean CBPI (HepG2 cells [2]; [13]): 1.95

O=P1(N(CCCl)CCCl)NCCCO1 (stereo not drawn) [Cyclophosphamide, reference compound]
MNBN cells frequency (%) (HepG2 cells [1]; [14]): 2.3% and 3.1%
Mean frequency (%) of MNBN cells (HepG2 cells [1]; [14]): 2.70%
MNBN cells frequency (%) (HepG2 cells [1]; [15]): 8.2% and 7.9%
Mean frequency (%) of MNBN cells (HepG2 cells [1]; [15]): 8.05%
cytotoxicity at 5 μg/mL (Cytotoxicity evaluation; [16]): 13%
cytotoxicity at 10 μg/mL (Cytotoxicity evaluation; [17]): 5.3%
CBPI (HepG2 cells [2]; [16]): 1.73 and 1.66
Mean CBPI (HepG2 cells [2]; [16]): 1.70
CBPI (HepG2 cells [2]; [17]): 1.93 and 2.09
Mean CBPI (HepG2 cells [2]; [17]): 2.01

CCCCC/C=C\C/C=C\CCCCCCCC(=O)O [LA, linoleic acid, reference compound]
release of cholecystokinin (CCK) into blood (C57Bl/6 male mice [3]): better inducer than NKS-3

CCCCC/C=C\C/C=C\CCCCCCCC(=O)OCC1(C)COC1 [NKS-5, (9Z,12Z)-(3-methyloxetan-3-yl)methyl octadeca-9,12-dienoate]
Ca2+ signaling compared with a dietary long-chain fatty acid (human fungiform TBC): higher
increase in intracellular free Ca2+ concentrations, [Ca2+]i (human fungiform TBC; NKS-3 50 μmol/L, NKS-5 25 μmol/L): induced an increase
Ca2+ signaling compared with a dietary long-chain fatty acid (mouse fungiform TBC): higher
CT nerve responses compared with dietary LCFAs (LA, OA) [4]: higher
release of cholecystokinin (CCK) into blood (C57Bl/6 male mice [3]): more efficient than NKS-3 and LA
release of peptide YY (PYY) into blood (C57Bl/6 male mice [3]): more potent than NKS-3 and LA
preference in 2-bottle paradigm versus control solution (C57Bl/6 male mice [5]): significant preference
CD36 (reduced) and GPR120 (high) protein expression in TBC, Western blots (C57BL/6J male mice; HFD animals, FTA intake 16 weeks): reversed this trend
LA-induced decreases in [Ca2+]i in TBC from obese mice (C57BL/6J male mice; HFD mice given FTA 16 weeks): reversed
size of hepatocytes (C57BL/6J male mice; HFD-fed mice): decreased
fecal microbiota: bacterial family increased (C57BL/6J male mice; HFD-fed mice, 16S rRNA sequencing, week 26): Bacteroidaceae
adipose tissue mRNA encoding leptin, CD36, TNF-α, and IL6 (C57BL/6J male mice; HFD-fed mice, epididymal adipose tissue): down-regulated
crown-like structures of adipocytes (C57BL/6J male mice; obese animals, histology): decreased
circulating TNF-α levels (C57BL/6J male mice; obese mice): failed to decrease significantly
release of GLP-1, CCK-1, and PYY into blood circulation (C57BL/6J male mice; obese mice, end of week 26): induced the release
estrogenic or antiestrogenic potential (conclusion) [6]: did not exert an estrogenic or antiestrogenic potential
androgenic or antiandrogenic property (conclusion) [7]: did not possess androgenic or antiandrogenic property
weight of kidneys (female Wistar rats; [18]): 1.84 ± 0.112 g
weight of liver (female Wistar rats; [18]): 8.03 ± 0.136 g
weight of spleen (female Wistar rats; [18]): 0.90 ± 0.062 g
toxic effect on liver enzymes and blood lipid parameters (female Wistar rats; rats, single oral limit dose 2000 mg/kg body weight, 2 weeks): No toxic effect
evidence of toxicity, preliminary study (female Wistar rats; single animal, oral dosages of 5000 mg/kg body weight): no evidence of toxicity
detection in blood circulation after intravenous injections (LC-MS) [8]: below the level of detection
MNBN cells frequency (%) (HepG2 cells [1]; [19]): 1.1% and 0.8%
Mean frequency (%) of MNBN cells (HepG2 cells [1]; [19]): 0.95%
MNBN cells frequency (%) (HepG2 cells [1]; [20]): 1.1% and 1.3%
Mean frequency (%) of MNBN cells (HepG2 cells [1]; [20]): 1.20%
MNBN cells frequency (%) (HepG2 cells [1]; [21]): 0.9% and 0.8%
Mean frequency (%) of MNBN cells (HepG2 cells [1]; [21]): 0.85%
MNBN cells frequency (%) (HepG2 cells [1]; [22]): 1.0% and 1.1%
Mean frequency (%) of MNBN cells (HepG2 cells [1]; [22]): 1.05%
MNBN cells frequency (%) (HepG2 cells [1]; [23]): 0.9%
Mean frequency (%) of MNBN cells (HepG2 cells [1]; [23]): 0.90%
MNBN cells frequency (%) (HepG2 cells [1]; [24]): 0.9% and 0.8%
Mean frequency (%) of MNBN cells (HepG2 cells [1]; [24]): 0.85%
cytotoxicity at 2.5 mmol/L (Cytotoxicity evaluation; [25]): 5.29%
cytotoxicity at 5 mmol/L (Cytotoxicity evaluation; [25]): 19.6%
cytotoxicity at 10 mmol/L (Cytotoxicity evaluation; [25]): 14.7%
cytotoxicity at 2.5 mmol/L (Cytotoxicity evaluation; [26]): -5.78%
cytotoxicity at 5 mmol/L (Cytotoxicity evaluation; [26]): -1.42%
cytotoxicity at 10 mmol/L (Cytotoxicity evaluation; [26]): 1.32%
cytotoxicity at 2.5 mmol/L (Cytotoxicity evaluation; [27]): -0.59%
cytotoxicity at 5 mmol/L (Cytotoxicity evaluation; [27]): -6.22%
cytotoxicity at 10 mmol/L (Cytotoxicity evaluation; [27]): 1.64%
CBPI (HepG2 cells [2]; [28]): 2.02 and 1.97
Mean CBPI (HepG2 cells [2]; [28]): 1.99
CBPI (HepG2 cells [2]; [29]): 1.83 and 1.85
Mean CBPI (HepG2 cells [2]; [29]): 1.84
CBPI (HepG2 cells [2]; [30]): 1.95 and 1.84
Mean CBPI (HepG2 cells [2]; [30]): 1.89
CBPI (HepG2 cells [2]; [19]): 1.99 and 1.98
Mean CBPI (HepG2 cells [2]; [19]): 1.98
CBPI (HepG2 cells [2]; [20]): 1.95 and 1.94
Mean CBPI (HepG2 cells [2]; [20]): 1.94
CBPI (HepG2 cells [2]; [21]): 1.91 and 1.93
Mean CBPI (HepG2 cells [2]; [21]): 1.92
CBPI (HepG2 cells [2]; [22]): 2.07
Mean CBPI (HepG2 cells [2]; [22]): 2.07
CBPI (HepG2 cells [2]; [23]): 2.14 and 2.12
Mean CBPI (HepG2 cells [2]; [23]): 2.13
CBPI (HepG2 cells [2]; [24]): 2.06 and 2.04
Mean CBPI (HepG2 cells [2]; [24]): 2.05
toxicity in the tester strains [9]: No toxicity
